Results reported in patent EP1976513B1 (priority 2006, dated 2007).

molecular target: human serotonin reuptake transporter (Homo sapiens, UniProt P31645); assay: cell-based; conditions: Human IC50 (nM) hSERT
Sequence (P31645 whole entry): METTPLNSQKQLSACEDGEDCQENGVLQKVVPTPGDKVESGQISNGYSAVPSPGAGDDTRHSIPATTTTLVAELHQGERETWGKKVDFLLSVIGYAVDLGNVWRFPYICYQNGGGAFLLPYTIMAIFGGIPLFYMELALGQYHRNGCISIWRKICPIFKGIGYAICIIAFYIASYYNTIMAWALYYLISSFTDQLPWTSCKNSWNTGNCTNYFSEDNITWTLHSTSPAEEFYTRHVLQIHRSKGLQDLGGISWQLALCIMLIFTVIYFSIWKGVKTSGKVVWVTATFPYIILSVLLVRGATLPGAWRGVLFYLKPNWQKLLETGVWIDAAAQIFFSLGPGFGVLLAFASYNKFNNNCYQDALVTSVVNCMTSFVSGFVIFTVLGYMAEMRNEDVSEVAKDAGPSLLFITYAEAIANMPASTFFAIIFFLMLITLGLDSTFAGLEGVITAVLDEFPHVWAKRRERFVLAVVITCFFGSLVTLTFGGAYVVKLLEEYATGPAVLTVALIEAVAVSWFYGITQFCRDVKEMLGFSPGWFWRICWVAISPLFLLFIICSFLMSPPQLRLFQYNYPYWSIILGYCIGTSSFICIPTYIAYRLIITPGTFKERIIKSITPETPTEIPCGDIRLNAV

Question: How did the IC50 turn out when `CC(C)CC(N)C1(c2ccc(Cl)cc2)CCCCC1` (single isomer, unassigned) [21 E1, 1-(1-(4-chlorophenyl)cyclohexyl)-3-methylbutan-1-amine] was run?
Answer: Its IC50 is 9660 nM.

Question: With `CC(C)CC(N)C1(c2ccc(Cl)cc2)CCCCC1` (single isomer, unassigned) [21 E2, 1-(1-(4-chlorophenyl)cyclohexyl)-3-methylbutan-1-amine] as the compound, how does the IC50 read?
Answer: Its IC50 is 1240 nM.

Question: With `CNCC1(c2ccc(Cl)c(Cl)c2)CCCC(F)(F)C1` (single isomer, unassigned) [205 E1, 1-(1-(3,4-dichlorophenyl)-3,3-difluorocyclohexyl)-N-methylmethanamine] as the compound, how does the IC50 read?
Answer: Its IC50 is 4210 nM.

Question: `CNCC1(c2ccc(Cl)c(Cl)c2)CCCC(F)(F)C1` (single isomer, unassigned) [205 E2, 1-(1-(3,4-dichlorophenyl)-3,3-difluorocyclohexyl)-N-methylmethanamine] was tested. Which IC50 did it give?
Answer: The IC50 was 1710 nM.

Question: With `CC(C)CC(N)C1(c2ccc(Cl)cc2)CCCCC1` (centres unmarked) [Compound 21, 1-(1-(4-chlorophenyl)cyclohexyl)-3-methylbutan-1-amine] as the compound, how does the IC50 read?
Answer: The IC50 was 2100 nM.

same assay, conditions: Human IC50 (nM) hSERT, recombinant human serotonin transporter (SERT)

Question: How did the IC50 turn out when `CNCC1(c2cccc(C(F)(F)F)c2)CCCCC1` [Compound 104, N-methyl-1-(1-(3-(trifluoromethyl)phenyl)-cyclohexyl)methanamine] was run?
Answer: The IC50 was 9490 nM.

same assay, conditions: recombinant human serotonin transporter (SERT); read-out: Human IC50 (nM) hSERT

Question: Which IC50 does the source give for `CC(N)C1(c2ccc(OC(F)(F)F)cc2)CCCCC1` (single isomer, unassigned) [19 E1, 1-(1-(4-(trifluoromethoxy)phenyl)cyclohexyl)ethanamine] here?
Answer: Its IC50 is 1510 nM.

Question: With `CC(N)C1(c2ccc(OC(F)(F)F)cc2)CCCCC1` (single isomer, unassigned) [19 E2, 1-(1-(4-(trifluoromethoxy)phenyl)cyclohexyl)ethanamine] as the compound, how does the IC50 read?
Answer: The IC50 was 398 nM.

Question: For `CC(N)C1(c2ccc(-c3ccco3)cc2)CCCCC1` (single isomer, unassigned) [22 E1, 1-(1-(4-(furan-2-yl)phenyl)cyclohexyl)ethanamine], which IC50 is on record?
Answer: Its IC50 is 63 nM.

Question: Which IC50 does the source give for `CC(N)C1(c2ccc(-c3ccco3)cc2)CCCCC1` (single isomer, unassigned) [22 E2, 1-(1-(4-(furan-2-yl)phenyl)cyclohexyl)ethanamine] here?
Answer: The IC50 was 101 nM.

Question: With `CNCC1(c2ccc(Cl)cc2)CCCCC1O` (single isomer, unassigned) [136 E1, trans-2-(4-chlorophenyl)-2-((methylamino)methyl)-cyclohexanol] as the compound, how does the IC50 read?
Answer: The IC50 was over 10000 nM.

Question: Which IC50 does the source give for `CNCC1(c2ccc(Cl)cc2)CCCCC1O` (single isomer, unassigned) [136 E2, trans-2-(4-chlorophenyl)-2-((methylamino)methyl)-cyclohexanol] here?
Answer: Its IC50 is over 10000 nM.

Question: With `CNCC1(c2ccc(OC)cc2)CCCCC1O` (single isomer, unassigned) [140 E2, trans-2-(4-Methoxyphenyl)-2-((methylamino)methyl)cyclohexanol] as the compound, how does the IC50 read?
Answer: The IC50 was over 10000 nM.

Question: With `CCNCC1(c2ccc(Cl)c(Cl)c2)CCCCC1CO` (single isomer, unassigned) [169 E1, (2-(3,4-dichlorophenyl)-2-((ethylamino)methyl)-cyclohexyl)methanol] as the compound, how does the IC50 read?
Answer: Its IC50 is 1100 nM.

Question: With `CCNCC1(c2ccc(Cl)c(Cl)c2)CCCCC1CO` (single isomer, unassigned) [169 E2, (2-(3,4-dichlorophenyl)-2-((ethylamino)methyl)-cyclohexyl)methanol] as the compound, how does the IC50 read?
Answer: The IC50 was 332 nM.

Question: With `NCC1(c2ccc(Cl)c(Cl)c2)CCCC(O)C1` (single isomer, unassigned) [184 E1, Cis-3-(aminomethyl)-3-(3,4-dichlorophenyl)cyclohexanol] as the compound, how does the IC50 read?
Answer: Its IC50 is over 10000 nM.

Question: For `NCC1(c2ccc(Cl)c(Cl)c2)CCCC(O)C1` (single isomer, unassigned) [184 E2, Cis-3-(aminomethyl)-3-(3,4-dichlorophenyl)cyclohexanol], which IC50 is on record?
Answer: Its IC50 is over 10000 nM.

Question: `NCC1(c2ccc(Cl)c(Cl)c2)CCCC(O)C1` (single isomer, unassigned) [185 E1, Trans-3-(aminomethyl)-3-(3,4-dichlorophenyl)cyclohexanol] was tested. Which IC50 did it give?
Answer: Its IC50 is over 10000 nM.

Question: `NCC1(c2ccc(Cl)c(Cl)c2)CCCC(O)C1` (single isomer, unassigned) [185 E2, Trans-3-(aminomethyl)-3-(3,4-dichlorophenyl)cyclohexanol] was tested. Which IC50 did it give?
Answer: The IC50 was over 10000 nM.

Question: Which IC50 does the source give for `CC(N)C1(c2ccc(OC(F)(F)F)cc2)CCCCC1` (centres unmarked) [Compound 19, 1-(1-(4-(trifluoromethoxy)phenyl)cyclohexyl)ethanamine] here?
Answer: Its IC50 is 107 nM.

Question: Which IC50 does the source give for `CC(N)C1(c2ccc(-c3ccco3)cc2)CCCCC1` (centres unmarked) [Compound 22, 1-(1-(4-(furan-2-yl)phenyl)cyclohexyl)ethanamine] here?
Answer: Its IC50 is 296 nM.

Question: Which IC50 does the source give for `CNCC1(c2ccc(OC(F)(F)F)cc2)CCC(C)(O)CC1` (centres unmarked) [Compound 247, 1-methyl-4-((methylamino)methyl)-4-(4-(trifluoromethoxy)phenyl)cyclohexanol] here?
Answer: Its IC50 is 707 nM.

Question: Which IC50 does the source give for `CN(C)CC1(c2ccc(OC(F)(F)F)cc2)CCC(O)CC1` (centres unmarked) [Compound 250, 4-((dimethylamino)methyl)-4-(4-(trifluoromethoxy)phenyl)cyclohexanol] here?
Answer: The IC50 was 47 nM.

Question: `CNCC1(c2ccc(Cl)c(Cl)c2)CCC(F)(F)CC1` [Compound 268, 1-(1-(3,4-dichlorophenyl)-4,4-difluorocyclohexyl)-N-methylmethanamine] was tested. Which IC50 did it give?
Answer: The IC50 was 704 nM.

Question: With `CC1(O)CCC(CN)(c2ccc(Cl)c(Cl)c2)CC1` (centres unmarked) [Compound 272, 4-(aminomethyl)-4-(3,4-dichlorophenyl)-1-methylcyclohexanol] as the compound, how does the IC50 read?
Answer: The IC50 was over 10000 nM.

Question: For `CC1(O)CCC(CN)(c2ccc(Cl)c(Cl)c2)CC1` (centres unmarked) [Compound 275, 4-(aminomethyl)-4-(3,4-dichlorophenyl)-1-methylcyclohexanol], which IC50 is on record?
Answer: Its IC50 is 1190 nM.

molecular target: T1, human dopamine reuptake transporter (Homo sapiens, UniProt Q01959); assay: cell-based; conditions: Human IC50 (nM) hDAT
T1 construct: expressed in transfected cells; host or cells: CHO-K1 or HEK293
T1 sequence (Q01959 whole entry): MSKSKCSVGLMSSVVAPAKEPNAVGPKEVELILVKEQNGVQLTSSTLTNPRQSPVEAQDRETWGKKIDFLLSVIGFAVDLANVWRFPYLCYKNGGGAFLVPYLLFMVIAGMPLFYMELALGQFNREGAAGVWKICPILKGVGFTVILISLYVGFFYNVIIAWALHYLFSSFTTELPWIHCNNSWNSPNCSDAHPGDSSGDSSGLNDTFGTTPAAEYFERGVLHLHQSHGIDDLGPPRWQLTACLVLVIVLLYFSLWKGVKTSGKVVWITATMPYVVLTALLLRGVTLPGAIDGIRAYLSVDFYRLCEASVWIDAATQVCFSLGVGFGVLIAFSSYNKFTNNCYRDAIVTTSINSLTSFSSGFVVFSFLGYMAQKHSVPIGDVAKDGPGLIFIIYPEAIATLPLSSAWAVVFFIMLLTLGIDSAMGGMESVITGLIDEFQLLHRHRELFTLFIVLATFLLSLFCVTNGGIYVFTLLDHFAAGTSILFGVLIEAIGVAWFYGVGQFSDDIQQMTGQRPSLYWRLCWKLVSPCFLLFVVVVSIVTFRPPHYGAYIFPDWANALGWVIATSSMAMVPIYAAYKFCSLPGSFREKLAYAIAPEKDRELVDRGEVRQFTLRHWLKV

Question: With `NCC1(c2ccc(Cl)c(Cl)c2)CC=CCC1` (centres unmarked) [Compound 71] as the compound, how does the IC50 read?
Answer: Its IC50 is 123 nM.

same assay, conditions: recombinant human dopamine transporter (DAT); read-out: Human IC50 (nM) hDAT

Question: For `CN(C)C[C@]1(c2ccc(Cl)c(Cl)c2)CCC[C@H](O)C1` (relative stereo) [Compound 203, cis-3-(3,4-dichlorophenyl)-3-((dimethylamino)methyl)cyclohexanol], which IC50 is on record?
Answer: Its IC50 is 1.4 nM.

Question: With `CNC(C)C1(c2cccc3ccccc23)CCCCC1` (single isomer, unassigned) [59 E1, N-methyl-1-(1-(naphthalen-1-yl)cyclohexyl)ethanamine] as the compound, how does the IC50 read?
Answer: The IC50 was 1750 nM.

Question: For `CNC(C)C1(c2cccc3ccccc23)CCCCC1` (single isomer, unassigned) [59 E2, N-methyl-1-(1-(naphthalen-1-yl)cyclohexyl)ethanamine], which IC50 is on record?
Answer: The IC50 was 3870 nM.

Question: With `CCC(NC)C1(c2ccc(Cl)c(Cl)c2)CCCCC1` (single isomer, unassigned) [62 E1, 1-(1-(3,4-dichlorophenyl)cyclohexyl)-N-methylpropan-1-amine] as the compound, how does the IC50 read?
Answer: The IC50 was 39 nM.

Question: How did the IC50 turn out when `CCC(NC)C1(c2ccc(Cl)c(Cl)c2)CCCCC1` (single isomer, unassigned) [62 E2, 1-(1-(3,4-dichlorophenyl)cyclohexyl)-N-methylpropan-1-amine] was run?
Answer: Its IC50 is 4 nM.

Question: For `CNCC1(c2ccc(OC(F)(F)F)cc2)CCCCC1O` (single isomer, unassigned) [146 E1, trans-2-((Methylamino)methyl)-2-(4-(trifluoromethoxy)phenyl) cyclohexanol], which IC50 is on record?
Answer: The IC50 was over 10000 nM.

Question: `CNCC1(c2ccc(OC(F)(F)F)cc2)CCCCC1O` (single isomer, unassigned) [146 E2, trans-2-((Methylamino)methyl)-2-(4-(trifluoromethoxy)phenyl) cyclohexanol] was tested. Which IC50 did it give?
Answer: Its IC50 is over 10000 nM.

Question: Which IC50 does the source give for `COc1ccc(C2(CN(C)C)CCCCC2O)cc1` (single isomer, unassigned) [155 E1, Cis-2-((dimethylamino)methyl)-2-(4-methoxyphenyl)cyclohexanol] here?
Answer: Its IC50 is over 10000 nM.

Question: With `COc1ccc(C2(CN(C)C)CCCCC2O)cc1` (single isomer, unassigned) [155 E2, Cis-2-((dimethylamino)methyl)-2-(4-methoxyphenyl)cyclohexanol] as the compound, how does the IC50 read?
Answer: The IC50 was over 10000 nM.

Question: How did the IC50 turn out when `CN(C)CC1(c2ccc(Cl)c(Cl)c2)CCCC(F)(F)C1` (single isomer, unassigned) [206 E1, 1-(1-(3,4-dichlorophenyl)-3,3-difluorocyclohexyl)-N,N-dimethylmethanamine] was run?
Answer: The IC50 was 59 nM.

Question: `CN(C)CC1(c2ccc(Cl)c(Cl)c2)CCCC(F)(F)C1` (single isomer, unassigned) [206 E2, 1-(1-(3,4-dichlorophenyl)-3,3-difluorocyclohexyl)-N,N-dimethylmethanamine] was tested. Which IC50 did it give?
Answer: Its IC50 is under 1 nM.

Question: `NCC1(c2ccc(F)c(Cl)c2)CCCCC1` [Compound 32, (1-(3-chloro-4-fluorophenyl)cyclohexyl)-methanamine] was tested. Which IC50 did it give?
Answer: Its IC50 is 424 nM.

Question: Which IC50 does the source give for `CNCC1(c2ccc3ccccc3c2)CCC(O)CC1` (centres unmarked) [Compound 227, 4-((methylamino)methyl)-4-(naphthalen-2-yl)cyclohexanol] here?
Answer: The IC50 was 5780 nM.

Question: `CNCC1(c2ccc3ccccc3c2)CCC(F)CC1` (centres unmarked) [Compound 232, 1-(4-fluoro-1-(naphthalen-2-yl)cyclohexyl)-N-methylmethanamine] was tested. Which IC50 did it give?
Answer: Its IC50 is 25 nM.

Question: Which IC50 does the source give for `CNCC1(c2ccc3ccccc3c2)CCC(F)CC1` (centres unmarked) [Compound 236, 1-(4-fluoro-1-(naphthalen-2-yl)cyclohexyl)-N-methylmethanamine] here?
Answer: The IC50 was 444 nM.

Question: With `NCC1(c2ccc(Cl)c(Cl)c2)CCC(F)CC1` (centres unmarked) [Compound 253, (1-(3,4-dichlorophenyl)-4-fluorocyclohexyl)methanamine] as the compound, how does the IC50 read?
Answer: Its IC50 is 37 nM.

Question: With `NCC1(c2ccc(Cl)c(Cl)c2)CCC(F)CC1` (centres unmarked) [Compound 260, (1-(3,4-dichlorophenyl)-4-fluorocyclohexyl)methanamine] as the compound, how does the IC50 read?
Answer: Its IC50 is 306 nM.

Question: For `CCC1(O)CCC(CNC)(c2ccc(Cl)c(Cl)c2)CC1` (centres unmarked) [Compound 279, 4-(3,4-dichlorophenyl)-1-ethyl-4-((methylamino)methyl)cyclohexanol], which IC50 is on record?
Answer: The IC50 was 1450 nM.

Question: For `CCC1(O)CCC(CNC)(c2ccc(Cl)c(Cl)c2)CC1` (centres unmarked) [Compound 282, 4-(3,4-dichlorophenyl)-1-ethyl-4-((methylamino)methyl)cyclohexanol], which IC50 is on record?
Answer: The IC50 was 186 nM.

Question: How did the IC50 turn out when `NC[C@]1(c2ccc(Cl)c(Cl)c2)CC[C@H](O)CC1` [Compound 299, (1s,4s)-4-(aminomethyl)-4-(3,4-dichlorophenyl)cyclohexanol] was run?
Answer: Its IC50 is 720 nM.
